Experiment [1] addresses 5-α-Reductase. To be noted: cited from earlier work; for Ki: literature value; for Ki / mode of inhibition (Reversible / Irreversible): Table I; for mode of inhibition (Reversible / Irreversible) / time dependence of 5-α-reductase inhibition: literature.
For experiment [2], the target named is T1, human steroid 5-α-reductase (Homo sapiens, UniProt P31213).
T1 construct: Prostatic particles were obtained by differential centrifugation; from tissue; host or cells: hyperplastic human prostate, washed 140,000×g particulate fraction
T1 sequence (P31213 1-254): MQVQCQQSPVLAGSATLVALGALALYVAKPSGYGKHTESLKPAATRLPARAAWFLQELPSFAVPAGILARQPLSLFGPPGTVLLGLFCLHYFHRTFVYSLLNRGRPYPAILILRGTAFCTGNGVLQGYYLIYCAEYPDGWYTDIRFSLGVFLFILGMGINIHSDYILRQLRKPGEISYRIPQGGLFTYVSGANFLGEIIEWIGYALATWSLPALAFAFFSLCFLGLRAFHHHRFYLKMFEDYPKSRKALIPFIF
The experiment can be described thus: biochemical. As to the method: A compound of the invention, 17β-(N,N-diisopropylcarboxamide)-estr-1,3,5(10)-triene-3-phosphonic acid, was tested for potency in inhibiting human steroid 5-α-reductase using tissue from hyperplastic human prostates. In determining potency in inhibiting the human enzyme, the following procedure was employed:
Frozen human prostates were thawed and minced into small pieces (5 mm^3). The tissue was homogenized in 3 to 5 volumes of 20 mM potassium phosphate buffer, pH 6.5, containing 0.33M sucrose, 1 mM dithiothreitol, and 50 μM NADPH with a Brinkmann Polytron (Sybron Corporation, Westbury, N.Y.). The solution was subjected to sonication for 3 to 5 minutes with a Sonifier (Branson Sonic Power Co.) followed by hand homogenization in a glass-to-glass Dounce homogenizer (Kontes Glass Company, Vineland, N.J.). […]
A constant amount of [^14 C]-testosterone (52 to 55 mCi/mmol, New England Nuclear, Boston, Mass.) in ethanol and varying amounts of the potential inhibitor in ethanol were deposited in test tubes and concentrated to dryness in a SAVANT Speed Vac. […] The radiochemical content in the bands of the substrate and the products was determined with a BIOSCAN Imaging Scanner (Bioscan, Inc., Washington, D.C.). The percent of recovered radiolabel converted to product was calculated, from which enzyme activity was determined. […]

For experiment [3], the system named is human steroid 5-α-reductase. To be noted: read-out: Michaelis-Menton constant (Km) of the substrate (testosterone); determined in a separate experiment.

Molecules are shown by their SMILES. Read-outs that look alike come from different tables or passages of the source.

The values below come from US4882319A, “Phosphonic acid substituted aromatic steroids as inhibitors of steroid 5-α-reductase” (SmithKline Beckman Corporation, priority 1988, dated 1989).

For orientation: Ki means the dissociation constant of the complex between target and ligand, obtained from inhibition or displacement. Take `CC12CCC(=O)C=C1CCC1C2CCC2(C)C1CC[C@@H]2C(=O)O` (some centres unmarked) [(1)]: in experiment [1], the Ki was 1100 nM and the “mode of inhibition (Reversible / Irreversible)” value is “Reversible”.

Take `CC(=O)C1CCC2C3CC=C=CC(=O)CCC(=O)C3CCC12C` (centres unmarked) [(2)]: in experiment [1], the Ki is 1000 nM and the “mode of inhibition (Reversible / Irreversible)” value is “Irreversible”.

As to `CC(CO)C1CCC2C3CC[C@H]4C(=[N+]=[N-])C(=O)CCC4(C)C3CCC12C` (some centres unmarked) [(3)], in experiment [1] (unit inferred), the Ki was 35 nM. Further, in experiment [1], the “mode of inhibition (Reversible / Irreversible)” value is “Irreversible” and the “time dependence of 5-α-reductase inhibition” value is on record as “potent, time-dependent inhibitor”.

On to `CCN(CC)C(=O)C1CCC2C3CC[C@H]4N(C)C(=O)CCC4(C)C3CCC12C` (some centres unmarked) [(4)], for which, in experiment [1], the Ki was 5 nM and the “mode of inhibition (Reversible / Irreversible)” value is “Reversible”.

Take `C=C1CC2C(CCC3(C)C2CC[C@]3(OC(C)=O)C(C)=O)C2(C)CCC(=O)C=C12` (some centres unmarked) [(5)]: in experiment [1], the Ki was 1250 nM, the “mode of inhibition (Reversible / Irreversible)” value is given as “Irreversible” and the “time dependence of 5-α-reductase inhibition” value was “time-dependent inactivator”.

As for `CC(C)N(C(=O)[C@H]1CCC2C3CCc4cc(P(=O)(O)O)ccc4C3CCC21C)C(C)C` (stereo partly drawn) [Example 1, 17β-(N,N-Diisopropylcarboxamide)-estr-1,3,5(10)-triene-3-phosphonic Acid], the Ki in experiment [2] amounted to 50 nM.

A word on the Km: it is the substrate concentration at which the rate is half of its maximum. Regarding `C[C@]12CC[C@H]3[C@@H](CCC4=CC(=O)CC[C@@]43C)[C@@H]1CC[C@@H]2O` [testosterone], in experiment [3], the Km amounted to 4.5 µM.
